According to patent publication US9121801B2, “Methods and devices for cellular analysis” (BioMarker Strategies, LLC, priority 2007, dated 2015):
Read-outs that look alike come from different tables or passages of the source.

Experiments:
FOS expression = settings: 14 days treatment, cited from earlier work
FOS mRNA [1] = settings: in culture; susceptible cell lines A431, CAL27, and HN11; cited from earlier work
FOS mRNA [2] = assay: FOS mRNA induction by quantitative RT-PCR in MCF-7 cells; type: cell-based, human; settings: 100 ng/ml of EGF ligand, incubation 0-45 minutes
Method: A functional measurement of cellular activation includes FOS mRNA induction determined by quantitative RT-PCR. FOS is an early response gene associated with the EGFR pathway. In an experiment, MCF-7 cells were grown in normal growth conditions in 6 well plates to 80% confluency. Cells were gently scraped and exposed to increasing shear forces (0-800 dyne/cm^2 through the Harvard Pipetter) in addition to increasing incubation times (0-45 minutes) in the presence or absence of 100 ng/ml of EGF ligand (Sigma) prior to RNA extraction. FOS mRNA induction peaks at 30-45 minutes and returns to basal levels in approximately 60 minutes. FOS induction is also stimulated as a result of incubation with EGF ligand. […] See FIGS. 17 and 18 for a graphical depiction of the results obtained.

[3] = EGFR-sensitive A431, CAL27, and HN11 xenograft tumors, gefitinib (A431), erlotinib (CAL27, HN11)
[4] = resistant strains, xenografts, gefitinib (HuCCT1), erlotinib (Hep2)

Molecule	increase in FOS expression in vivo (FOS expression; [3])	increase in FOS expression in vivo (FOS expression; [4])	FOS mRNA levels (FOS mRNA [1])	FOS induction (FOS mRNA [2])
C#Cc1cccc(Nc2ncnc3cc(OCCOC)c(OCCOC)cc23)c1 [erlotinib]	abrogate the increase in FOS expression	not in resistant strains	decrease FOS mRNA levels	–
COc1cc2ncnc(Nc3ccc(F)c(Cl)c3)c2cc1OCCCN1CCOCC1 [gefitinib]	abrogate the increase in FOS expression	not in resistant strains	decrease FOS mRNA levels	–
EGF ligand: growth factor, tumor-cell stimulatory ligand (Sigma) (NSDSECPLSHDGYCLHDGVCMYIEALDKYACNCVVGYIGERCQYRDLKWWELR; Epidermal growth factor; UniProt P01133 971-1023, looked up)	–	–	–	stimulated
